# Data as given in patent US12233161B1, “Lipids and lipid nanoparticle formulations” (LONGUIDE BIOPHARMA CORPORATION, priority 2024, dated 2025).
# Assays:
# [1] = Potential characterization of nucleic acid lipid nanoparticle preparations; type: physicochemical; conditions: Fluc-circ-RNA LNP, preparation given IV
# In short: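 Zeta potential was read on a Malvern ZEN3700 after diluting 20 μL lipid nanoparticle solution (about 0.04 mg/mL mRNA) into 780 μL ultrapure water. Alternatively, a 27.5 μL sample in 200 μL water was first sized by dynamic light scattering, then diluted with 600 μL more water for potential measurement.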
# mice [2] = experiment: In vivo delivery of FLuc-circ-RNA lipid nanoparticles in mice; conditions: Fluc-circ-RNA LNP, IV
# In short: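 FLuc-circ-RNA-loaded LNPs given to mice by intramuscular (quadriceps), intravenous (tail vein), intraperitoneal or subcutaneous (back) injection, ~75 μL per mouse, 3 mice per group. D-Luciferin (200 μL of 15 mg/mL) injected i.p. 10–15 min before whole-body bioluminescence imaging.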
# [3] = Particle size and PDI of nucleic acid lipid nanoparticle preparations by dynamic light scattering; type: physicochemical
# In short: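 Size read by DLS after diluting the LNP preparation (approx. 0.04 mg/mL mRNA) in ultrapure water with gentle pipette mixing. The same sample, recovered and diluted further with water, was then used for zeta potential measurement.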
# mice [4] = experiment: In vivo delivery of FLuc-mRNA lipid nanoparticles in mice, in vivo imaging (IVIS); conditions: for IVIS: Fluc-mRNA
# In short: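 Mice (n=3) received about 75 μL FLuc-mRNA LNP per mouse intramuscularly (rectus femoris), intravenously (tail vein), intraperitoneally or subcutaneously (back). After injection, D-luciferin (200 μL, 15 mg/mL) was given i.p. 10-15 min before IVIS imaging.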
# [5] = DMG-PEG2000:DOPE:Chol:compound 1.40:11.15:38.95:48.50, N/P 30
# [6] = DMG-PEG2000:DSPC:Chol:compound 1.00:11.50:27.50:60.00, N/P 30
# [7] = Fluc-circ-RNA LNP, preparation given IV
# [8] = IV, liver, DMG-PEG2000:DOPE:Chol:compound 1.40:11.15:38.95:48.50, N/P 30
# [9] = IV, liver, DMG-PEG2000:DSPC:Chol:compound 1.00:11.50:27.50:60.00, N/P 30
# [10] = IV, lung, DMG-PEG2000:DOPE:Chol:compound 1.40:11.15:38.95:48.50, N/P 30
# [11] = IV, lung, DMG-PEG2000:DSPC:Chol:compound 1.00:11.50:27.50:60.00, N/P 30
# [12] = IV, spleen, DMG-PEG2000:DOPE:Chol:compound 1.40:11.15:38.95:48.50, N/P 30
# [13] = IV, spleen, DMG-PEG2000:DSPC:Chol:compound 1.00:11.50:27.50:60.00, N/P 30
smiles,measurement,setting,value
[2H]C([2H])([2H])[N+](CCCN(CC(O)C(=O)NCCCCCCCCCCCC)CC(O)C(=O)NCCCCCCCCCCCC)(CCCN(CC(O)C(=O)NCCCCCCCCCCCC)CC(O)C(=O)NCCCCCCCCCCCC)C([2H])([2H])[2H] (stereo not shown) [Compound L0346],Zeta potential (mV),[1],14.23 mV
same,% of organ targeting,mice [2]; liver,0.87%
same,% of organ targeting,mice [2]; lung,98.45%
same,% of organ targeting,mice [2]; spleen,0.69%
same,PDI,[3]; [5],0.38
same,Particle size (nm),[3]; [5],78.75 nm
same,PDI,[3]; [6],0.23
same,Particle size (nm),[3]; [6],157.00 nm
same,PDI,[3]; [7],0.24
same,Particle size (nm),[3]; [7],161.2 nm
same,IVIS,"mice [4]; IM, DMG-PEG2000:DOPE:Chol:compound 1.40:11.15:38.95:48.50, N/P 30",3.49E+05
same,IVIS,"mice [4]; IV, body, DMG-PEG2000:DOPE:Chol:compound 1.40:11.15:38.95:48.50, N/P 30",1.95E+08
same,IVIS,"mice [4]; IV, body, DMG-PEG2000:DSPC:Chol:compound 1.00:11.50:27.50:60.00, N/P 30",3.93E+08
same,% of organ targeting,mice [4]; [8],0.84%
same,IVIS,mice [4]; [8],2.65E+06
same,% of organ targeting,mice [4]; [9],0.56%
same,IVIS,mice [4]; [9],7.32E+06
same,% of organ targeting,mice [4]; [10],98.01%
same,IVIS,mice [4]; [10],3.10E+08
same,% of organ targeting,mice [4]; [11],98.90%
same,IVIS,mice [4]; [11],1.28E+09
same,% of organ targeting,mice [4]; [12],1.16%
same,IVIS,mice [4]; [12],3.66E+06
same,% of organ targeting,mice [4]; [13],0.54%
same,IVIS,mice [4]; [13],6.96E+06
